Measured values taken from patent US12668567B2 (Zywie, LLC, priority 2023, dated 2026).
“Also recorded” adds a separate entry of the source.

How the values were obtained:
mice = experiment: Novel place recognition (cognitive acuity test at 7 months); type: in vivo, mouse; conditions: 150 mg/kg/day and 50 mg/kg/day vs. control, tested at 7 months; FIG. 9
Experimental: A Discrimination Index (DI)=(tnovel-tfamiliar)/(tnovel+tfamiliar) was used to assess the time spent exploring near the object in a novel place (“tnovel”) vs. the total exploration time overall. Discrimination Index scores greater than zero are considered to indicate good place recognition memory.
Three groups of mice, with at least 13 mice in each group, are given a cognitive acuity test at 7 months. The three groups of mice are: “High Dose” Group (150 mg/kg/day of a compound of the present invention), “Low Dose” (50 mg/kg/day of a compound of the present invention) Group, and a Control Group (not administered a compound of the present invention).

mouse B6D2F1 model = experiment: Lifespan study with chow supplement; type: in vivo; conditions: 50 mg/kg daily as chow supplement
Experimental: Weaned male BDF1 mice raised from pups, housed 1-4 animals per cage and fed Teklad 7013 NIH-31 rodent chow and water ad libitum, at 2 months of age, are divided into two roughly equal groups of 22-25 animals. One group continues to be fed the Teklad chow as before (control); the other group is switched to Teklad chow formulated with any one of compounds 1-6 at 300 mg per kg of chow. This formulation was designed, based on the average ad libitum chow consumption of an adult male BDF1 mouse, to deliver 50 mg/kg/day (based on body mass) to each mouse in the treated group. Mice are maintained on this diet until they die naturally or until they reach 16 months of age, at which time the experiment ends. During the course of the experiment, all mice are periodically removed from their cages and handled in the course of subjecting them to various sensorimotor, cognitive, and/or behavioral tests.

[1] = tested on: iPSC-derived human neurons bearing the Swedish amyloid precursor protein mutation; experiment: Secretion of Abeta40 and Abeta42 into media (ELISA); type: cell-based; conditions: 5 days; for secretion of Abeta40 into the media / secretion of Abeta42 into the media: 10 micromolar; for secretion of Abeta40 into the media: FIG. 7A; for secretion of Abeta42 into the media: FIG. 7B
Excerpt: Media was collected and analysed by ELISA assay.
Media was taken and analyzed by ELISA (Invitrogen) for Abeta 40 (FIG. 7A) and 42 (FIG. 7B) following manufacturer's instructions.

[2] = Metabolic stability in human liver microsomes; type: in vitro ADME; conditions: for Increase of elimination half-life vs. ambroxol: human liver microsomes; for In vitro elimination half-life t1/2 / Intrinsic clearance CLint-microsomes: human liver microsomes 1 mg/mL protein, 1 μM compound, 37° C., NADPH-regenerating system
Experimental: The compounds were added to preparations of human liver microsomes (200 μL per incubation at a 1 mg/mL protein concentration) such that the final compound concentration was 1 μM. The samples were incubated at 37° C. in the presence of a reduced nicotinamide adenine dinucleotide phosphate (NADPH)-regenerating system (NADP, 1 mM, pH 7.4; glucose-6-phosphate, 5 mM, pH 7.4; glucose-6-phosphate dehydrogenase, 1 unit/mL). A positive control (midazolam, 1 μM, 0.1 mg/mL protein) was incubated concurrently to ensure the microsome preparation was performing as expected. Samples were obtained at t=0, 30, 60, and 120 min and quenched by addition of acetonitrile.
Quenched samples were analyzed by liquid chromatography coupled to tandem mass spectrometry detection (LC/MS-MS). The concentration of the test compounds at each time point were converted to percent remaining relative to the concentration of the compound at time t=0 (which serves as the 100% value). All data points were included in data processing. The rate constant of elimination (kel, min^−1) of each test compound was determined from the time course of disappearance of the parent compound based on fitting the experimental data to a single exponential decay formula (At=Aoe^−kelt, where At is the % remaining at time t, Ao is 100%, […] is the elimination rate constant, and t is time). The in vitro half-life (t1/2) was determined from kel based on the formula: t1/2=ln(2)/kel. The rate constant of elimination was also used to calculate the in vitro intrinsic clearance CLint-microsomes (μL/min/mg protein).

[3] = tested on: iPSC-derived human neurons; experiment: Lysosomal and autophagosomal gene expression by qPCR in iPSC-derived human neurons; type: cell-based; conditions: 3 days, 10 micromolar, FIG. 5
Experimental: To obtain the data, iPSC-derived human Neurons were treated for 3 days with solvent alone (DMSO), ZW-010 (difluoro) or ZW-011 (dimethoxy) at 10 micromolar. Cells were extracted and mRNAs were quantitated by qPCR.
In FIG. 5, Human iPSC-derived neurons (as in FIG. 3) were plated on two 6-well plates at a density of 150,000 cells/well. […] Cells were treated for 3 days and cells were TRIzol-chloroform extracted. cDNA was created using an iScript cDNA synthesis kit (Bio-Rad), and RT-PCR was run using a SsoAdvanced Universal SYBR Green Supermix kit (Bio-Rad).

[4] = tested on: human induced pluripotent stem cell (iPSC)-derived neurons; experiment: Lysosomal size (Lysotracker, confocal microscopy) in iPSC-derived neurons; type: cell-based; conditions: 14 days, IMARIS software, FIG. 3
Experimental: To obtain the data, human induced pluripotent stem cell (iPSC)-derived neurons were grown in culture for 14 days. Lysosomes were stained with “Lysotracker” and cells were fixed and imaged using confocal micrsosopy. Lysosomal size was measured using IMARIS software (Bitplane).
In FIG. 3 human neuronal inducible Pluripotent Stem Cells (iPSCs) were obtained from the New York Stem Cell Foundation. Cultured cells were differentiated and maintained in proprietary media from Stem Cell Technology. […] Cells were treated for 14 days. Lysosomes were stained with “Lysotracker Green” (Invitrogen) following manufacturer's directions. Cells were fixed and 3D image stacks were acquired using a Leica SP8 laser scanning confocal microscope. Lysosomal size was quantitated using IMARIS 7.7 software (Bitplane).

TFEB = TFEB transfer to the nucleus (immunostaining, nuclear puncta); type: cell-based; conditions: human iPSC-derived neurons, 14 days; FIG. 6
Experimental: To obtain the data, human iPSC-derived neurons were treated with difluor-substituted-ambroxol for 14 days. Cells were fixed and endogenous TFEB was immunostained and nuclei were identified by DAPI staining. Cells were imaged on a Leica SP8 Confocal Microscope. TFEB signal appeared as puncta throughout the cytoplasm and nucleus (FIG. 6B). TFEB puncta within the nucleus were quantitated using IMARIS software (Bitplane).
Human iPSC-derived neurons were treated with difluoro-substituted-ambroxol for 14 days. Cells were fixed and endogenous TFEB was immunostained. Nuclei were identified by DAPI staining. Cells were imaged as 3D stacks on a Leica SP8 Confocal Microscope. TFEB signal appeared as puncta throughout the cytoplasm and nucleus (FIG. 6A). TFEB puncta within the nucleus were quantitated using IMARIS 7.7 software (Bitplane) (FIG. 6B).

N2A neuroblastoma cells = experiment: Lysosomal, autophagosomal and TFEB gene expression by qPCR in N2A cells; type: cell-based; conditions: 10 micromolar, FIG. 4
Experimental: To obtain the data, N2A neuroblastoma cells were treated for 3 days with solvent alone (DMSO), ZW-010 (difluoro) or ZW-011 (dimethoxy) at 10 micromolar. Cells were extracted and mRNAs were quantitated by qPCR.
In FIG. 4, N2a Neuroblastoma cells were obtained from the American Tissue Type Collection (ATCC). Cells were plated in a 6-well plate at a density of 100,000 cells/well. Cells were given 24 hours in MEM supplemented with 10% Fetal Bovine Serum (FBS) and then differentiated by serum starvation in MEM for 24 hours. […] Cells were left in treated media for 24 hours then RNA was TRIzol-chloroform extracted. cDNA was created using an iScript cDNA synthesis kit (Bio-Rad), and RT-PCR was run using a SsoAdvanced Universal SYBR Green Supermix kit (Bio-Rad).

[5] = mouse, in vivo, po, 10 mg/kg
Experimental: Both compounds were dosed at 10 mg/kg (free base equivalent) as 1 mg/mL clear solutions in 5:95 v/v dimethylsulfoxide (DMSO)/saline. Volumes administered were calculated for each animal based on their most recent weight. Animals were fasted overnight prior to drug administration and food and water were returned 4 h after dose administration. Mice (N=3 per group) were sacrificed at 0.15, 0.25, 1, 2, 4, 8, and 24 h post-dose. Blood (K2EDTA collection tubes) and brain were collected from each animal at each time point. Plasma (isolated from blood samples by centrifugation) and brain homogenates (obtained by homogenization with 50% methanol in water in a 1:2 w/v ratio) were used to prepare samples for quantitative analysis (internal standard: verapamil) by HPLC/MS-MS (C18 column, gradient elution; standard curves from 1 to 3,000 ng/mL; electrospray, positive ionization mode, multiple reaction monitoring—MRM—mode).

| Increase of elimination half-life vs. ambroxol [2] | In vitro elimination half-life t1/2 [2] | Intrinsic clearance CLint-microsomes [2] | AUClast Brain/Plasma [5] | AUClast, brain [5] | AUClast, plasma [5] | molar exposure AUClast [5] | Compound | cognitive acuity (novel place recognition) (mice) | lifespan (mouse B6D2F1 model; starting at 2 months of age, FIG. 8) | healthspan (mouse B6D2F1 model; surviving animals when sacrificed) | secretion of beta amyloid species (Abeta 40 and 42) ([1]; FIG. 7A-B) | lysosomal and autophagosomal gene expression (LAMP1, Cathepsin D, Cathepsin B, GBA1, LC3, TFEB mRNA) [3] | lysosomal size [4] | TFEB transfer to the nucleus (TFEB) | lysosomal, autophagosomal and TFEB gene expression (LAMP1, Cathepsin B, GBA1, LC3, TFEB mRNA) (N2A neuroblastoma cells) | secretion of Abeta40 into the media [1] | secretion of Abeta42 into the media [1] |
| --- | --- | --- | --- | --- | --- | --- | --- | --- | --- | --- | --- | --- | --- | --- | --- | --- | --- |
| – | – | – | – | – | – | – | Nc1c(Br)cc(Br)cc1CN[C@H]1CC[C@H](O)CC1 [ambroxol, trans-4-((2-amino-3,5-dibromobenzyl)amino) cyclohexanol] | dose-related improvement in cognitive acuity | able to increase lifespan | healthspan was extended in parallel with lifespan | effective in reducing secretion of beta amyloid species | – | – | – | – | – | – |
| increased by more than two-fold | >2 h | <5.775 μL/min/mg protein | 3.6 | 10774 ng·h/g | 2991 ng·h/mL | 42.0 µM·h | Nc1c(F)cc(F)cc1CN[C@H]1CC[C@H](O)CC1 [ZW-010, trans-{4-[(2-amino-3.5-difluorophenyl)methyl]amino}cyclohexanol] | – | – | – | – | increased transcription of lysosome-associated LAMP1, Cathepsin D, Cathepsin B, GBA1, and autophagy-associated LC3 and TFEB to a greater extent than ambroxol; also recorded: drive lysosomal and autophagosomal gene expression to a greater degree in iPSC-derived human neurons compared with ambroxol | increase lysosomal size | induces TFEB transfer to the nucleus | increased transcription of lysosome-associated LAMP1, Cathepsin B, GBA1, and autophagy-associated LC3 and TFEB to a greater extent than ambroxol; also recorded: drive lysosomal and autophagosomal and TFEB gene expression | decreased secretion | decreased secretion |
| increased by more than two-fold | >2 h | <5.775 μL/min/mg protein | – | – | – | – | COc1cc(CN[C@H]2CC[C@H](O)CC2)c(N)c(OC)c1 [ZW-011, trans-4-{[(2-amino-3.5-dimethoxyphenyl)methyl]amino}cyclohexanol] | – | – | – | – | increased transcription of lysosome-associated LAMP1, Cathepsin D, Cathepsin B, GBA1, and autophagy-associated LC3 and TFEB to a greater extent than ambroxol; also recorded: drive lysosomal and autophagosomal gene expression to a greater degree in iPSC-derived human neurons compared with ambroxol | increase lysosomal size | – | increased transcription of lysosome-associated LAMP1, Cathepsin B, GBA1, and autophagy-associated LC3 and TFEB to a greater extent than ambroxol; also recorded: drive lysosomal and autophagosomal and TFEB gene expression | decreased secretion | decreased secretion |
